Source: paper PMC9497102, “Thiosemicarbazone Derivatives Developed to Overcome COTI-2 Resistance” (Cancers, 2022)
≈ marks a conversion by molar mass, not a printed value. Read-outs that look alike come from different tables or passages of the source.

How the values were obtained:
[1] = pKa by UV-vis spectrophotometric titrations; format: physicochemical; details: 30% (v/v) DMSO/H2O solution, I = 0.1 M (KCl), 25 °C
Protocol: (§1) The UV-vis spectra were recorded using an Agilent Cary 8454 diode array spectrophotometer in the 200 to 950 nm window, and the path length was varied between 1 and 5 cm, depending on the solubility (thus the applicable concentration). For the spectrophotometric titrations, the same instruments (Metrohm 665 Dosimat burette, Orion 710A pH-meter, Metrohm combined pH glass electrode) and experimental setup (ionic strength: 0.10 M (KCl); titrant: 0.10 M carbonate-free KOH solution in 30% (v/v) DMSO/H2O; samples: prepared in 30% (v/v) DMSO/H2O; calibration: method of Irving et al.; pH range: 1.0 to 13.5; and sample volume: 10 cm^3) were used as in our previous work. Argon overpressure was used for the Fe(II)-containing samples when the Fe(II) stock solution was added to the samples in tightly closed titration vessels, which were previously completely deoxygenated (for 20 min). Measurements were taken with ligands (10–80 μM, depending on solubility) in the presence of 1, 0.5, and 0.3 equiv. of Cu(II), Fe(II), and Fe(III) ions. Equilibrium constants, such as the proton dissociation constants (pKa) of the ligands, the overall stability constants (logβ) of the metal complexes, and the UV-vis spectra of the individual ligand or complex species were computed using the program PSEQUAD [18], as was the case in our previous works.

[2] = Zinc(II) complex formation, UV-vis spectrophotometric titrations; format: physicochemical; details: for pZn: calculated at cM = 1 μM, cL = 10 μM, pH = 7.40
[3] = Copper(II) complex formation, UV-vis titrations and EDTA competition; format: physicochemical; details: for pCu: calculated at cM = 1 μM, cL = 10 μM, pH = 7.40; for logβ5.9′ [CuL]^+: conditional stability constant, EDTA competition at pH = 5.90; for logβ [CuL]^+: β = β’ × αH, [H+] = 10^–5.90 M
Protocol: as §1
The conditional stability constants (β’) of the Cu(II) complexes were calculated from competition reactions with EDTA at pH = 5.9 using MES (50 mM) when the metal:ligand ratio was 1:1 (clig = cCu between 10 and 80 μM). Individual samples were prepared in which the ligand:EDTA ratio was variable between 1:0 and 1:50. After a 3 h incubation period, UV-vis spectra were collected. The calculation of the β’ (CuL) values was performed following the same method as that in our previous work using the logβ’5.90 = 13.89 of complex [Cu(EDTA)]^2− obtained from the previously reported equilibrium constants of EDTA and its Cu(II) complex.

[4] = Cyclic voltammetry of copper(II)–ligand (1:1) systems; format: physicochemical; details: cL = cCu(II) = 1 mM, pH 7.40, 25 °C, 90% (v/v) DMSO/H2O, 0.01 V/s scan rate
Protocol: Cyclic voltammograms for the Fe(III) and Cu(II) complexes were recorded in 90% (v/v) DMSO/water solution containing 1 mM ligand and 0.5 mM FeCl3 or 1 mM CuCl2 using a conventional three-electrode system under nitrogen atmosphere and a PC-Controlled Electrochemical Measurement System (EF 451). The ionic strength was 0.10 M, adjusted by TBAN. Samples were purged for 15 min with Ar before recording the cyclic voltammograms. Platinum electrodes were used as the working and auxiliary electrodes, and Ag/AgCl (3 M KCl) was applied as the reference electrode. The electrochemical potentials were converted into the normal hydrogen electrode (NHE) scale by adding 0.222 V. The instrument was calibrated with an aqueous solution of K3[Fe(CN)6] (E1/2 = +0.386 V vs. NHE). Redox potentials were obtained at different scan rates (5–25 mV/s) in the range of −0.8 to +0.1 V. The dependence of the peak current values of the square root of the scan rates is shown in Figure S5 for the iron and copper complexes of COTI-NMeCy.

[5] = Thermodynamic solubility in water at pH 7.4 (UV-vis); format: physicochemical; details: water at pH 7.4 (20 mM HEPES buffer), aqueous buffer, thermodynamic from solid, water pH 7.4 (20 mM HEPES), 25 °C, read-out: S (meas.)
Protocol: The thermodynamic solubility of COTI-NMeCy, COTI-Nme2, COTI-NH2, and COTI-2 was measured for the saturated solutions in water at pH 7.4 (20 mM HEPES buffer) at 25.0 ± 0.1 °C. The concentrations of the compounds were determined by UV-vis spectrophotometry using stock solutions of the compounds with known concentrations dissolved in pure DMSO, and 50% and 1% (v/v) DMSO/buffered aqueous solution for the calibration. The parallel artificial membrane permeability assay (PAMPA) was applied for the ligands with a Corning Gentest pre-coated PAMPA Plate System. Peff values were calculated according to the equation reported by Yu et al..

[6] = Iron(III) complex formation, UV-vis spectrophotometric titrations; format: physicochemical; details: for pFe(III)*: Fe(III) hydroxido species also considered as unbound metal, cFe = 1 μM; for pFe(III)* / pFe(III): cL = 10 μM, pH = 7.40; for pFe(III): –log[free Fe(III)] calculated at cFe = 1 μM
Protocol: as §1

[7] = Iron(II) complex formation, UV-vis spectrophotometric titrations (anaerobic); format: physicochemical; details: for pFe(II): –log[free Fe(II)] calculated at cFe = 1 μM, cL = 10 μM, pH = 7.40
Protocol: as §1

SW480 cells = assay: MTT viability assay in combination with copper chelator TTM; format: cell-based, human; details: TTM 1 µM and 5 µM, 72 h
Protocol: For the cytotoxicity, cell viability, and proliferation studies, the 3-(4,5-dimethylthiazol-2-yl)-2,5-diphenyltetrazolium bromide (MTT) assay was utilized. Cells were seeded in 96-well plates at a density of 2 × 10^4 cells/well, with the exception of SW480/Tria, which was used at a density of 3 × 10^4 cells/well. After 24 h of recovery, cells were treated with the indicated concentration of drugs. For the drug combination experiments, verapamil and cyclosporine A (CSA) were used as […] modulators, and tetrathiomolybdate (TTM) was used as a copper chelator. The TSCs were dissolved in DMSO followed by subsequent dilutions in the medium in order to maintain a final DMSO concentration of <1%. After 72 h, the treatment solution was removed and replaced with 100 µL of MTT solution (EZ4U, Biomedica, Vienna, Austria), which was diluted 1:10 in the growth medium. A TECAN Infinite 200 Pro plate reader was used to measure the absorbance of the solution after 2–3 h incubation at 5% CO2 in an incubator at 37 °C. The anticancer activity was determined with GraphPad Prism software and indicated as IC50 values (half maximum inhibitory concentration).

[8] = T = 25.0 °C, I = 0.10 M (KCl), 30% (v/v) DMSO/H2O

Row | SMILES | pKa ([1]; read-out: pKa (H2L)) | pKa ([1]; read-out: pKa (HL)) | logβ [ZnL2] [2, 8] | logβ [ZnL]^+ [2, 8] | pZn [2] | pCu [3] | logβ5.9′ [CuL]^+ [3] | logβ [CuL]^+ [3] | E′ vs. NHE, copper(II)–ligand (1:1) systems [4] [V] | solubility thermodynamic [5] [µM] | pFe(III)* [6] | logβ [Fe(III)L2]^+ [6, 8] | logβ [Fe(III)L]^2+ [6, 8] | pFe(III) [6] | logβ [Fe(II)L2] [7, 8] | logβ [Fe(II)L]^+ [7, 8] | pFe(II) [7] | impact of copper chelator TTM on anticancer activity (SW480 cells) | other results
1 | CN(C)C(=S)NN=C1CCCc2cccnc21 (mixture of isomers) [COTI-NMe2, 2-(6,7-Dihydroquinolin-8(5H)-ylidene)-N^4,N^4-dimethylhydrazine-1-carbothioamide] | 3.65 ± 0.01 | 12.09 ± 0.01 | 25.24 ± 0.08 | 13.02 ± 0.04 | 11.7 | 14.7 | 12.23 ± 0.05 | 18.42 | -0.24 | 417 | 11.1 | 32.77 ± 0.03 | 17.25 ± 0.02 | 19.2 | 31.33 ± 0.09 | 17.62 ± 0.03 | 17.8 | strong protective activity | –
2 | S=C(N/N=C1\CCCc2cccnc21)N1CCN(c2ccccn2)CC1 [COTI-2, 4-(pyridine-2-yl)-N-([(8E)-5,6,7,8-tetrahydroquinolin-8-ylidene]amino)piperazine-1-carbothioamide] | 5.08 ± 0.01 | 10.97 ± 0.01 | 23.23 ± 0.08 | 12.85 ± 0.02 | 11.9 | 15.6 | 13.06 ± 0.02 | 18.19 | -0.19 | 0.41 (≈ 0.15 µg/mL) | 10.6 | 29.98 ± 0.06 | 18.02 ± 0.03 | 18.6 | 30.63 ± 0.09 | 18.28 ± 0.06 | 19.3 | strong protective activity | pKa ([1]; read-out: pKa (H3L)): 3.23 ± 0.01; logβ [ZnLH]^2+ [2, 8]: 18.54 ± 0.02; free ligand in the presence of zinc(II) ([2]; calculated distribution, 1 µM COTI-2, 2:1 ligand:zinc(II), pH 7.4): 10–20%; logβ [Fe(III)LH]^3+ [6, 8]: 21.16 ± 0.03; free ligand in the presence of iron(III) ([6]; calculated distribution, 1 µM COTI-2, 2:1 ligand:iron(III), pH 7.4): 10–20%; logβ [Fe(II)L2H2]^2+ [7, 8]: 41.18 ± 0.06; logβ [Fe(II)L2H]^+ [7, 8]: 36.74 ± 0.09; logβ [Fe(II)LH]^2+ [7, 8]: 21.00 ± 0.03
3 | CN(C(=S)N/N=C1\CCCc2cccnc21)C1CCCCC1 [COTI-NMeCy, N-Cyclohexyl-2-(6,7-dihydroquinolin-8(5H)-ylidene)-N^4-methylhydrazine-1-carbothioamide] | 3.47 ± 0.01 | 12.4 ± 0.01 | 26.32 ± 0.09 | 12.94 ± 0.04 | 12.1 | 15.0 | 12.56 ± 0.09 | 19.08 | -0.22 | 3.9 (≈ 1.23 µg/mL) | 9.9 | 32.20 ± 0.03 | 17.06 ± 0.02 | 18.0 | 31.04 ± 0.03 | 18.66 ± 0.03 | 16.9 | strong protective activity | –
